Test results taken from patent publication US11492671B2, “MiRNAs for treatment and in vitro diagnosis of drug resistant tumors” (ISTITUTI FISIOTERAPICI OSPITALIERI, priority 2018, dated 2022).

How the values were obtained:
[1] = system: human umbilical vein endothelial cells (HUVEC); test: Endothelial tube formation assay on matrigel; format: cell-based
Method: Growth factor reduced Matrigel (10 μL/well) was allowed to polymerize for 1 h on angiogenesis 96 well μ-plates (ibidi, GmbH) at 37° C., 5% CO2. HUVEC (5×10^3 cells/well) suspended in 50 μL of pre-warmed Eagle Basal Medium (CTRL), 10% FBS, or conditioned media from WM266^S, or WM266^R cells, were seeded on matrigel and allowed to form tubes at 37° C. in humidified air with 5% CO2 for 6 h. In order to quantify tube formation, images were acquired and the number of tubes formed by cord-like structures exceeding 100 μm in length were visualized using Axiovision 4.8 software (Carl Zeiss) and counted.
This finding was of particular interest in the light of the known involvement of VEGF in melanoma progression and resistance to therapy (23). […] Of note, for our results only tube-like structures exceeding 100 μm in length were considered. […] As control, 10% FBS employed as a source of angiogenic growth factors, elicited a considerable response rising to 204% over basal (FIG. 24). […] In order to find a correlation between miRNAs deregulation and […]

A375^DR melanoma cells = test: Colony formation / growth of cells double resistant to BRAF and MEK inhibitors; format: cell-based, human; settings: miRNAs targeted individually; FIG. 18 left
Source text: Data are mean±s.d. from three independent experiments. P<0.05.
Human melanoma cell lines M14 (ATCC® HTB-129™) and A375 (ATCC® CRL-1619™) (both V600E) were from American Type Culture Collection (ATCC®). LOX IMVI (V600E) melanoma cell line (EZT-LOXI-1) was from EZ Byosistems™. WM266 melanoma cell line (V600D)(WM266-4-01-0001) was from ROCKLAND™ antibodies & assays. Resistant melanoma cells were selected by treating them for about two months with increasing drug concentrations every two weeks (from 50 nM to 2 μM). A375^DR cells were selected in the presence of both BRAF and MEK inhibitors, as previously done for M14^R, WM266^R, LOX IMVI^R and A375^R. All human melanoma cell lines used in the present work were cultured in RPMI supplemented with 10% (vol/vol) FBS. Human umbilical vein endothelial cells (HUVEC)s, were employed between the third and the seventh passage, were grown in Eagle Basal Medium (EBM) supplemented with 4% FBS, 0.1% gentamicin, 1 μg/mL hydrocortisone, […] and 12 μg/mL bovine brain extract (Cambrex, Bio Science).
Next, the growth inhibitory effect of simultaneously targeting miRNAs combinations was determined. In detail, for these experiments antagomiRs recognising the UPMIRNAs (amiR-4443: aaaacccacgcctccaa (SEQ ID NO: 10) and amiR-4488: cgccggagcccgccccct (SEQ ID NO: 11)) in different combinations with DOWNMIRNAs mimics (miR-204-5p: […] (SEQ ID NO: 2) and miR-199b-5p […] (SEQ ID NO: 1)) were transiently transfected in melanoma cell lines. […] In addition, the effect of targeting miRNAs individually or in combinations was assessed in a cell line rendered double resistant to both BRAF and MEK inhibitors (called A375^DR). Other investigators have previously reported that double drug resistant melanoma cell lines are more difficult to growth inhibit (5). In fact no growth inhibition was observed effect on A375^DR when the four selected miRNAs were targeted individually (FIG. 18, left panel). […]

M14^S melanoma cells = test: Development of BRAFi-resistant colonies under chronic BRAFi exposure; format: cell-based, human; settings: miRNA overexpressed, cells exposed chronically to a BRAFi (1 μM vemurafenib) for 28 days; FIG. 16
Method: FIG. 16 M14^S melanoma cells were transfected with the indicated miRNAs for 72 h and then stained with Crystal violet (day 0). The remaining plates were treated with 1 μM vemurafenib every 48 h and then stained after 7, 14, 21 and 28 days. Data are mean±s.d. from three independent experiments. P<0.05. The pictures shown are representative of three independent experiments.
Hereafter, the effects of the DOWNMIRNAs on the development of drug resistance in vitro were determined. […] In contrast, growth of control cells transfected with scrambled-miRNA was initially impaired by the presence of a BRAF inhibitor (from 7 to 21 days of drug exposure), but gave rise to resistant colonies at later times (day 28) (FIG. 16).

[2] = system: sensitive M14 and WM266 melanoma cells; test: Cell viability / proliferation after transient transfection of miRNAs, with or without a BRAFi; format: cell-based, human; settings: enforced expression by transient transfection, FIG. 12; for effect of BRAFi on cell viability: in the presence of a BRAFi
Method: (§1) Viability of cells was examined with 3-(4,5-dimethylthiazol-2-yl)-2,5-diphenyltetrazolium bromide Cell Titer 96 AQueous One Solution Cell Proliferation Assay (Promega), according to the manufacturer's protocol. The plates were analyzed in a Multilabel Counter (Bio-Rad Laboratories). Cell viability was also determined by crystal violet staining. Briefly, the cells were stained for 20 min at room temperature with staining solution (0.5% crystal violet in 30% methanol), washed four times with water and then dried. Cells were then dissolved in a Methanol/SDS solution and the adsorbance (595 nm) was read using a microplate ELISA reader.
(§2) Next, the biological consequences of overexpressing or inhibiting the expression of the four selected miRNAs above miR-4443, miR-4488, miR-204-5p and miR-199b-5p were assessed by transient transfections in sensitive M14 and WM266 melanoma cells in the presence or not of a BRAFi in order to evaluate melanoma cell proliferation and apoptosis induction.

[3] = system: drug sensitive and resistant M14 cells; test: In vitro short term colony formation assay; format: cell-based, human; settings: overexpression in BRAFi drug resistant cells (M14^R); FIG. 15
Method: as §1, with “reader. […]” for “reader.”

[4] = system: sensitive M14 and WM266 melanoma cells; test: Apoptosis induction measured by Caspase 3/7 activation after transient transfection, with or without a BRAFi; format: cell-based, human; settings: enforced expression by transient transfection, FIG. 13; for BRAFi induction of apoptosis, measured by Caspase 3/7 activation: in the presence of a BRAFi
Method: as §2

[5] = system: VEGFA in WM266^R melanoma cells; test: Western blot analysis of VEGFA protein levels after miRNA transfection; format: cell-based, human; settings: miRNA overexpressed in WM266^R cells vs Scrambled miRNA; FIG. 26
Source text: FIG. 26 WM266^R melanoma cells transfected with Scrambled miRNA or miR-199b-5p were harvested and subjected to Western blot analysis to detect VEGFA and GAPDH protein levels.
Antibodies against VEGFA and GAPDH were obtained from Santa Cruz Biotechnology. Vemurafenib and trametinib were obtained from Selleck Chemicals. TaqMan probes for GAPDH, VEGF, BCL2, miR-4443, miR-4488, miR-204-5p, miR-199b-5p, miR-630, miR-1234, is-3676 (previously named miR-3676-3p), miR-145-5p and RNU48 were purchased from Applied Biosystems. Melanoma cells were lysed with RIPA buffer; 50 μg of total protein were resolved under reducing conditions by 8% SDS-PAGE and transferred to reinforced nitrocellulose (BA-S 83, Schleider and Schuell, Keene, N.H., USA). The membranes were blocked with 5% non fat dry milk in PBS 0.1% Tween 20, and incubated with the different primary antibodies. The membranes were rehydrated and probed with anti-GAPDH, to estimate the protein equal loading. Densitometric analysis was performed using Quantity One Program (Bio-Rad Laboratories GmbH) and results were expressed as mean values from three independent experiments.
VEGF increased expression and release members of miR-199 family were considered (25). […] Therefore, miR-199b-5p was overexpressed in WM266^R cells.

Row | Substance | A375^DR colony formation / growth inhibition (A375^DR melanoma cells) | effect of BRAFi on cell viability [2] | BRAFi induction of apoptosis, measured by Caspase 3/7 activation [4] | further results
1 | Avastin: used to inhibit VEGFR activity; called VEGFR inhibitor [reference compound] | – | – | – | tube formation induced by CM from WM266^R melanoma cells ([1]; addition of VEGFR inhibitor, FIG. 25): significantly inhibited
2 | amiR-4443: antagomiR recognising miR-4443: aaaacccacgcctccaa (antisense AAAACCCACGCCTCCAA; listed as DNA, chemistry not given here) | not able to affect | – | – | –
3 | amiR-4488: antagomiR recognising miR-4488: cgccggagcccgccccct (antisense CGCCGGAGCCCGCCCCCT; listed as DNA, chemistry not given here) | not able to affect | – | – | –
4 | miR-199b-5p: miRNA mimic: cccaguguuuagacuaucuguuc (SEQ ID NO:1) (CCCAGUGUUUAGACUAUCUGUUC; listed as RNA, chemistry not given here; listed as Homo sapiens) | not able to affect | potentiates BRAFi activity | potentiates BRAFi activity | tube formation induced by CM from transfected WM266^R cells ([1]; conditioned medium of WM266^R cells transfected with the miRNA, FIG. 27): lost the capability to induce tube formation; ability to form BRAFi-resistant colonies (M14^S melanoma cells): completely lost the ability to form BRAFi-resistant colonies; cell proliferation [2]: inhibits cell proliferation; colony formation [3]: strongly impaired colony formation; apoptosis (Caspase 3/7 activation) [4]: induces apoptosis; VEGF expression (Western Blot) [5]: able to reduce specifically VEGF expression
5 | miR-4443: UPMIRNA, uuggaggcguggguuuu (SEQ ID NO: 10), enforced expression by transient transfection (UUGGAGGCGUGGGUUUU; listed as RNA, chemistry not given here; listed as Homo sapiens) | – | decreases the effect of BRAFi | decreases the effect of BRAFi | –
6 | miR-4488: UPMIRNA, agggggcgggcuccggcg (SEQ ID NO: 11), enforced expression by transient transfection (AGGGGGCGGGCUCCGGCG; listed as RNA, chemistry not given here; listed as Homo sapiens) | – | decreases the effect of BRAFi | decreases the effect of BRAFi | –
